According to US9108944B2, “Androgen receptor modulators and uses thereof” (ARAGON PHARMACEUTICALS, INC., priority 2010, dated 2015):

Tests used:
AR-VP16 [1] = biological target: T1, AR-VP16 (Homo sapiens, UniProt P10275); test: AR-VP16 DNA Binding Assay, agonist mode (HepG2 cells); type: cell-based; settings: Emax >20x DMSO control = agonist
T1 sequence (P10275 560-920 limits assumed): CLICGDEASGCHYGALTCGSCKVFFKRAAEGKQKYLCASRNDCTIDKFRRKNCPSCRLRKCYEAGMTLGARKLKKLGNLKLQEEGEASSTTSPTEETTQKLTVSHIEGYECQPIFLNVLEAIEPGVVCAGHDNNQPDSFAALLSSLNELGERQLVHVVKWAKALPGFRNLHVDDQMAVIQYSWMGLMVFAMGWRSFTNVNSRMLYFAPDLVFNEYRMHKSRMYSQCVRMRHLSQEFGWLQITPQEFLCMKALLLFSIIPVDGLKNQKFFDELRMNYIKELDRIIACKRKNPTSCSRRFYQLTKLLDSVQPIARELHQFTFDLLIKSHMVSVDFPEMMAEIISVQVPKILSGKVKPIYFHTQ

AR-VP16 [2] = biological target: T1, AR-VP16; test: AR-VP16 DNA Binding Assay, antagonist mode (HepG2 cells, 0.1 nM R1881); type: cell-based
In short: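 Transfected HepG2 cells expressing AR-VP16 received serially diluted compound in charcoal-stripped-serum RPMI the day after transfection, with 0.1 nM R1881 (final) added only for antagonist testing. After 48 h, cells were lysed for measurement.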

CNC(=O)c1ccc(N2C(=S)N(c3ccc(C#N)n4nccc34)C(=O)C23CCC3)cc1F [Compound 83, 4-(7-(7-Cyanopyrazolo[1,5-a]pyridin-4-yl)-8-oxo-6-thioxo-5,7-diazaspiro[3.4]octan-5-yl)-2-fluoro-N-methylbenzamide]
ARVP16 DNA Binding Assay (Agonist mode): Agonist? (AR-VP16 [1]): No (Agonist defined as a compound whose Emax in the ARVP16 DNA Binding Assay (Agonist mode) is >20x DMSO control) | IC50 (AR-VP16 [2]): > 1000 nM

N#Cc1ncc(N2C(=O)C3(CCC3)N(c3ccc(F)cc3F)C2=S)cc1C(F)(F)F [Compound 76, 5-(5-(2,4-Difluorophenyl)-8-oxo-6-thioxo-5,7-diazaspiro[3.4]octan-7-yl)-3-(trifluoromethyl)picolinonitrile]
ARVP16 DNA Binding Assay (Agonist mode): Agonist? (AR-VP16 [1]): Yes (Agonist defined as a compound whose Emax in the ARVP16 DNA Binding Assay (Agonist mode) is >20x DMSO control) | IC50 (AR-VP16 [2]): < 1000 nM

N#Cc1ncc(N2C(=O)C3(CCC3)N(c3ccc(OCCc4ccc5ccccc5c4)c(F)c3)C2=S)cc1C(F)(F)F [Compound 141, 5-(5-(3-Fluoro-4-(2-(naphthalen-2-yl)ethoxy)phenyl)-8-oxo-6-thioxo-5,7-diazaspiro[3.4]octan-7-yl)-3-(trifluoromethyl)picolinonitrile]
ARVP16 DNA Binding Assay (Agonist mode): Agonist? (AR-VP16 [1]): Yes (Agonist defined as a compound whose Emax in the ARVP16 DNA Binding Assay (Agonist mode) is >20x DMSO control) | IC50 (AR-VP16 [2]): > 1000 nM

N#Cc1ncc(N2C(=O)C3(CCC3)N(c3ccc(OCCn4cccc4)c(F)c3)C2=S)cc1C(F)(F)F [Compound 146, 5-(5-(4-(2-(1H-Pyrrol-1-yl)ethoxy)-3-fluorophenyl)-8-oxo-6-thioxo-5,7-diazaspiro[3.4]octan-7-yl)-3-(trifluoromethyl)picolinonitrile]
ARVP16 DNA Binding Assay (Agonist mode): Agonist? (AR-VP16 [1]): No (Agonist defined as a compound whose Emax in the ARVP16 DNA Binding Assay (Agonist mode) is >20x DMSO control) | IC50 (AR-VP16 [2]): < 1000 nM

CNC(=O)c1ccc(N2C(=S)N(c3cnc(C#N)c(C)c3)C(=O)C23CCC3)cc1C [Compound 106, 4-(7-(6-Cyano-5-methylpyridin-3-yl)-8-oxo-6-thioxo-5,7-diazaspiro[3.4]octan-5-yl)-N,2-dimethylbenzamide]
ARVP16 DNA Binding Assay (Agonist mode): Agonist? (AR-VP16 [1]): No (Agonist defined as a compound whose Emax in the ARVP16 DNA Binding Assay (Agonist mode) is >20x DMSO control) | IC50 (AR-VP16 [2]): < 1000 nM

CCOC(=O)c1ccc(N2C(=S)N(c3cnc(C#N)c(C(F)(F)F)c3)C(=O)C23CCC3)cc1F [Compound 3, Ethyl 4-(7-(6-cyano-5-(trifluoromethyl)pyridin-3-yl)-8-oxo-6-thioxo-5,7-diazaspiro[3.4]octan-5-yl)-2-fluorobenzoate]
ARVP16 DNA Binding Assay (Agonist mode): Agonist? (AR-VP16 [1]): No (Agonist defined as a compound whose Emax in the ARVP16 DNA Binding Assay (Agonist mode) is >20x DMSO control) | IC50 (AR-VP16 [2]): > 1000 nM

N#Cc1ncc(N2C(=O)C3(CCC3)N(c3ccc(CCCC(=O)Nc4ccccc4)cc3)C2=S)cc1C(F)(F)F [Compound 292, 4-(4-(7-(6-Cyano-5-(trifluoromethyl)pyridin-3-yl)-8-oxo-6-thioxo-5,7-diazaspiro[3.4]octan-5-yl)phenyl)-N-phenylbutanamide]
ARVP16 DNA Binding Assay (Agonist mode): Agonist? (AR-VP16 [1]): No (Agonist defined as a compound whose Emax in the ARVP16 DNA Binding Assay (Agonist mode) is >20x DMSO control) | IC50 (AR-VP16 [2]): > 1000 nM

Cc1ccc(N2C(=S)N(c3cnc(C#N)c(C(F)(F)F)c3)C(=O)C23CCC3)cc1F [Compound 49, 5-(5-(3-Fluoro-4-methylphenyl)-8-oxo-6-thioxo-5,7-diazaspiro[3.4]octan-7-yl)-3-(trifluoromethyl)picolinonitrile]
ARVP16 DNA Binding Assay (Agonist mode): Agonist? (AR-VP16 [1]): No (Agonist defined as a compound whose Emax in the ARVP16 DNA Binding Assay (Agonist mode) is >20x DMSO control) | IC50 (AR-VP16 [2]): < 1000 nM

Cc1cc(N2C(=O)C3(CCC3)N(c3ccc(C(=O)O)c(F)c3)C2=S)cnc1C#N [Compound 225, 4-(7-(6-Cyano-5-methylpyridin-3-yl)-8-oxo-6-thioxo-5,7-diazaspiro[3.4]octan-5-yl)-2-fluorobenzoic acid]
ARVP16 DNA Binding Assay (Agonist mode): Agonist? (AR-VP16 [1]): No (Agonist defined as a compound whose Emax in the ARVP16 DNA Binding Assay (Agonist mode) is >20x DMSO control) | IC50 (AR-VP16 [2]): < 1000 nM

Cc1ccccc1N1C(=S)N(c2cnc(C#N)c(C(F)(F)F)c2)C(=O)C12CCC2 [Compound 20, 5-(8-Oxo-6-thioxo-5-(o-tolyl)-5,7-diazaspiro[3.4]octan-7-yl)-3-(trifluoromethyl)picolinonitrile]
ARVP16 DNA Binding Assay (Agonist mode): Agonist? (AR-VP16 [1]): No (Agonist defined as a compound whose Emax in the ARVP16 DNA Binding Assay (Agonist mode) is >20x DMSO control) | IC50 (AR-VP16 [2]): < 1000 nM

COCCCNC(=O)c1ccc(N2C(=S)N(c3cnc(C#N)c(C(F)(F)F)c3)C(=O)C23CCC3)cc1F [Compound 249, 4-(7-(6-Cyano-5-(trifluoromethyl)pyridin-3-yl)-8-oxo-6-thioxo-5,7-diazaspiro[3.4]octan-5-yl)-2-fluoro-N-(3-methoxypropyl)benzamide]
ARVP16 DNA Binding Assay (Agonist mode): Agonist? (AR-VP16 [1]): No (Agonist defined as a compound whose Emax in the ARVP16 DNA Binding Assay (Agonist mode) is >20x DMSO control) | IC50 (AR-VP16 [2]): < 1000 nM

CNC(=O)c1ccc(N2C(=S)N(c3cnc(C#N)c(C)c3)C(=O)C23CCC3)c(F)c1 [Compound 104, 4-(7-(6-Cyano-5-methylpyridin-3-yl)-8-oxo-6-thioxo-5,7-diazaspiro[3.4]octan-5-yl)-3-fluoro-N-methylbenzamide]
ARVP16 DNA Binding Assay (Agonist mode): Agonist? (AR-VP16 [1]): No (Agonist defined as a compound whose Emax in the ARVP16 DNA Binding Assay (Agonist mode) is >20x DMSO control) | IC50 (AR-VP16 [2]): < 1000 nM

N#Cc1ncc(N2C(=O)C3(CCC3)N(c3cccc(OC(F)(F)F)c3)C2=S)cc1C(F)(F)F [Compound 45, 5-(8-Oxo-6-thioxo-5-(3-(trifluoromethoxy)phenyl)-5,7-diazaspiro[3.4]octan-7-yl)-3-(trifluoromethyl)picolinonitrile]
ARVP16 DNA Binding Assay (Agonist mode): Agonist? (AR-VP16 [1]): No (Agonist defined as a compound whose Emax in the ARVP16 DNA Binding Assay (Agonist mode) is >20x DMSO control) | IC50 (AR-VP16 [2]): < 1000 nM

Cc1cc(N2C(=O)C3(CCC3)N(c3ccc4c(c3)CNC4=O)C2=S)cnc1C#N [Compound 111, 3-Methyl-5-(8-oxo-5-(1-oxoisoindolin-5-yl)-6-thioxo-5,7-diazaspiro[3.4]octan-7-yl)picolinonitrile]
ARVP16 DNA Binding Assay (Agonist mode): Agonist? (AR-VP16 [1]): No (Agonist defined as a compound whose Emax in the ARVP16 DNA Binding Assay (Agonist mode) is >20x DMSO control) | IC50 (AR-VP16 [2]): > 1000 nM

Cc1cc(N2C(=O)C3(CCC3)N(c3ccc(C(=O)Nc4ccn(C)n4)c(F)c3)C2=S)cnc1C#N [Compound 303, 4-(7-(6-Cyano-5-methylpyridin-3-yl)-8-oxo-6-thioxo-5,7-diazaspiro[3.4]octan-5-yl)-2-fluoro-N-(1-methyl-1H-pyrazol-3-yl)benzamide]
ARVP16 DNA Binding Assay (Agonist mode): Agonist? (AR-VP16 [1]): No (Agonist defined as a compound whose Emax in the ARVP16 DNA Binding Assay (Agonist mode) is >20x DMSO control) | IC50 (AR-VP16 [2]): > 1000 nM

CS(=O)(=O)N1CCC(Oc2ccc(N3C(=S)N(c4cnc(C#N)c(C(F)(F)F)c4)C(=O)C34CCC4)cc2)CC1 [Compound 219, 5-(5-(4-((1-(methylsulfonyl)piperidin-4-yl)oxy)phenyl)-8-oxo-6-thioxo-5,7-diazaspiro[3.4]octan-7-yl)-3-(trifluoromethyl)picolinonitrile]
ARVP16 DNA Binding Assay (Agonist mode): Agonist? (AR-VP16 [1]): Yes (Agonist defined as a compound whose Emax in the ARVP16 DNA Binding Assay (Agonist mode) is >20x DMSO control) | IC50 (AR-VP16 [2]): < 1000 nM
